Data published in article PMC10319809, “Chronic UCN2 treatment desensitizes CRHR2 and improves insulin sensitivity” (Nature Communications, 2023).
“And” between values parts separate entries of the source, which are not always exact repeats. Equal values may be shown once. Where no end group is shown, it is not given here.

Tests used:
male mice [1] = test: Glucose tolerance test (oGTT / IPGTT), blood glucose; format: in vivo, mouse
Experimental: (§1) All metabolic tests were performed using standard protocols on male littermates (aged: 10–14 weeks). For glucose tolerance tests (GTTs), animals were fasted for 8 h with ad libitum access to water. Fasting glucose measurements were taken before […] oral glucose dose. Blood glucose measurements were taken via tail nick using the AlphaTRAK 2 Glucose Monitoring System (Zoetis, Parsippany-Troy Hills, NJ) at 10, 30, 60, and 120 min after dose. Blood was collected for insulin measurement in EDTA tubes (Becton, Dickinson and Company, Franklin Lakes, NJ) and centrifuged to collect plasma (2000 g for 10 min at 4 °C), which was stored at −80 °C until analysis at 10, 30, 60, and 120 min after dose. Insulin levels were measured using an Ultrasensitive Mouse Insulin ELISA (ALPCO, Salem, NH), according to manufacturer’s instructions. For insulin tolerance tests (ITTs), animals were fasted for 8 h and blood glucose was measured before (0 min) and at 30, 60, 90, and 120 min following IP injection of 0.75 IU/kg of insulin (Humulin R, Eli Lilly, Indianapolis, IN). […]

male mice [2] = test: Insulin tolerance test (ITT), blood glucose; format: in vivo, mouse; set-up: dose or concentration left out as unconfirmed; conditions: 0.05, 0.2
Experimental: as §1

mouse soleus muscle = test: Ex vivo soleus muscle [3H]2-deoxyglucose uptake
Experimental: Soleus muscle was removed from fed animals anesthetized by an intraperitoneal injection of pentobarbital (10 mg/100 g body weight). Dissected soleus muscles were suspended at 5 mN of tension in incubation chambers (Model 610/820 M, Danish Myo-Technology, Denmark) containing Krebs-Ringer-Buffer supplemented with 0.1% BSA, 2 mM pyruvate and 8 mM Mannitol. During the entire incubation period the KRB was maintained at 30 °C and oxygenated with 95% O2 and 5% CO2. Following 10 min of pre-incubation muscles were incubated in Krebs buffer +/− 100 nM (−7.0 log[M]) UCN2. At the next time point, 30 min later, muscles were placed in baths containing Krebs buffer +/− 100 nM (−7.0 [M]) UCN2. At the next time point, 15 min later, muscles were placed in baths containing Krebs buffer +/− 100 nM (−7.0 log[M]) UCN2 + /− 60 nM Insulin (Actrapid, Novo Nordisk, Bagsvaerd, Denmark) for 15 min. For the ex vivo glucose uptake studies, 1 mM [^3H]2-deoxyglucose (Perkin-Elmer) and 7 mM [^14C]mannitol (Perkin-Elmer) was also added at this time. Muscles that were in saline in the first bath, saline in the second bath, and saline in the third bath were assigned to the SSS group. Muscles that were in saline in the first bath, saline in the second bath, and UCN2 in the third bath were assigned to the SSU group. Muscles that were in UCN2 in the first bath, saline in the second bath, and UCN2 in the third bath were assigned to the USU group. Muscles that were in saline in the first bath, UCN2 in the second bath, and UCN2 in the third bath were assigned to the SUU group. Following incubation, muscles were harvested, washed in ice-cold KRB and immediately frozen in liquid nitrogen.
Glucose uptake was determined in muscle protein lysates by assessing the accumulation of [^3H]2-deoxyglucose with the use of [^14C]mannitol to correct for the extracellular space. Radioactivity was measured by liquid scintillation counting.

With “IVLSLDVPIGLLQILLEQARARAAREQATTNARILARVGHC-NH2 (C-terminus assumed) [UCN2, Urocortin 2]” the “glucose tolerance after acute UCN2 in UCN2.AAV animals” value (male mice [1]; UCN2.AAV animals injected acutely with UCN2) was “worsened glucose tolerance”, the “glucose tolerance in oGTT” value (male mice [1]; oGTT twenty minutes after 1 mg/kg IP UCN2) was “glucose intolerance” and the “effect of increasing doses in ITT” value (male mice [2]) was “decreasing rates of glucose uptake in response to insulin injection”. The “2DG Uptake” value (mouse soleus muscle; Fig 6C, UCN2 without insulin, individual muscles) was 0.55 µmol/g/h and 1.85 µmol/g/h and 0.61 µmol/g/h and 0.24 µmol/g/h and 0.63 µmol/g/h, the “insulin-mediated glucose uptake, acute treatment ex vivo” value (mouse soleus muscle; soleus muscle, 100 nM UCN2, 60 nM insulin) was “sufficient to blunt insulin-mediated glucose uptake” and the “insulin-mediated glucose uptake after UCN2 pre-treatment ex vivo” value (mouse soleus muscle; soleus muscle, 100 nM UCN2 pre-treatment (SUU, USU) versus acute (SSU)) was “increased insulin-mediated glucose uptake relative to acute UCN2 treatment”.
